Measured values reported in ChEMBL document CHEMBL1201862, “PubChem BioAssay data set” (2004).
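Step 1: Grow cells in 96-well plates. Step 2: Expose to compound for 48 hours at 5 concentrations. Step 3: Interpolate endpoints linearly; if unreached, use highest concentration. GI50 = concentration required for 50% inhibition of growth.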 Activity calls are given as the source filed them. Cut-off read from the data, not from the text of the source: active = GI50 up to about 1.1 µM and inactive = higher.

Columns and labels:
Test in all cases: DTP human tumour cell line panel, 48 h
COLO 205 = tested on: COLO 205
EKVX = tested on: EKVX
HOP-92 = tested on: HOP-92
HT-29 = tested on: HT-29
Hs-578T = tested on: Hs-578T
LOX IMVI = tested on: LOX IMVI
M14 = tested on: M14
MCF7 = tested on: MCF7
MDA-MB-435 = tested on: MDA-MB-435
MOLT-4 = tested on: MOLT-4
NCI-H226 = tested on: NCI-H226
NCI-H460 = tested on: NCI-H460
NCI/ADR-RES = tested on: NCI/ADR-RES
RPMI-8226 = tested on: RPMI-8226
SF-295 = tested on: SF-295
SK-MEL-28 = tested on: SK-MEL-28
SNB-19 = tested on: SNB-19
SNB-75 = tested on: SNB-75
T47D = tested on: T47D
Malme-3M = tested on: Malme-3M

Measured: GI50

CCCCC(=O)c1ccc2ccccc2c1O
inactive: COLO 205 88.9 µM | EKVX 62.1 µM | HOP-92 > 100 µM | HT-29 > 100 µM | Hs-578T > 100 µM | LOX IMVI > 100 µM | M14 > 100 µM | MCF7 52.8 µM | MDA-MB-435 > 100 µM | MOLT-4 84.1 µM | NCI-H226 > 100 µM | NCI-H460 > 100 µM | NCI/ADR-RES > 100 µM | RPMI-8226 35.5 µM | SF-295 > 100 µM | SK-MEL-28 > 100 µM | SNB-19 > 100 µM | SNB-75 > 100 µM | T47D 49.2 µM

COC(=O)C1Cc2c([nH]c3ccccc23)C(c2cccc(O)c2)N1 (stereo unspecified)
inactive: COLO 205 30.5 µM | EKVX 40.3 µM | HOP-92 28.4 µM | HT-29 27.6 µM | Hs-578T 37.4 µM | LOX IMVI 50.7 µM | M14 21.3 µM | MCF7 27.3 µM | MDA-MB-435 18.2 µM | MOLT-4 31.6 µM | NCI-H226 40.7 µM | NCI-H460 26.3 µM | NCI/ADR-RES 22.9 µM | RPMI-8226 28.4 µM | SF-295 45.7 µM | SK-MEL-28 28.7 µM | SNB-19 42.5 µM | SNB-75 23.6 µM | T47D 41.5 µM

c1cc(-c2ccc(-c3ccc(C4=NCCCN4)cc3)o2)ccc1C1=NCCCN1
inactive: COLO 205 68.9 µM | EKVX 40.2 µM | HOP-92 32 µM | HT-29 76.4 µM | Hs-578T 98.6 µM | LOX IMVI 37.4 µM | M14 53.5 µM | MCF7 88.7 µM | MDA-MB-435 33.5 µM | MOLT-4 > 100 µM | Malme-3M 49.4 µM | NCI-H226 54 µM | NCI-H460 14.6 µM | NCI/ADR-RES 76.7 µM | SF-295 24.2 µM | SK-MEL-28 25.1 µM | SNB-19 52.6 µM | SNB-75 43 µM | T47D 59.7 µM

O=P(OCc1ccccc1)(OCc1ccccc1)C(O)/C=C/c1ccccc1 (stereo unspecified)
inactive: COLO 205 21.3 µM | EKVX 33.3 µM | HOP-92 19.4 µM | HT-29 21.3 µM | Hs-578T 17 µM | LOX IMVI 14.9 µM | M14 18.1 µM | MCF7 27.6 µM | MDA-MB-435 17.3 µM | MOLT-4 21.6 µM | Malme-3M 19.6 µM | NCI-H226 34.8 µM | NCI/ADR-RES 26.5 µM | RPMI-8226 23.6 µM | SF-295 20.3 µM | SK-MEL-28 37.9 µM | SNB-19 23 µM | T47D 33.7 µM

O=C(O)Cc1ccc(/N=N/c2c(O)c(C(=O)O)cc3ccccc23)cc1
inactive: COLO 205 > 100 µM | EKVX > 100 µM | HOP-92 > 100 µM | HT-29 > 100 µM | Hs-578T > 100 µM | M14 > 100 µM | MCF7 > 100 µM | MDA-MB-435 > 100 µM | MOLT-4 > 100 µM | Malme-3M 24.8 µM | NCI-H226 > 100 µM | NCI-H460 > 100 µM | NCI/ADR-RES > 100 µM | RPMI-8226 > 100 µM | SF-295 > 100 µM | SK-MEL-28 > 100 µM | SNB-19 > 100 µM | SNB-75 > 100 µM | T47D > 100 µM

COc1ccc(C(SCCO)(c2ccccc2)c2ccccc2)cc1
inactive: COLO 205 14 µM | EKVX 12.9 µM | HOP-92 11 µM | HT-29 14.5 µM | Hs-578T 22.3 µM | LOX IMVI 18.1 µM | M14 7.08 µM | MCF7 10.5 µM | MDA-MB-435 10.5 µM | MOLT-4 15.7 µM | Malme-3M 18.9 µM | NCI-H226 12.7 µM | NCI-H460 13.3 µM | NCI/ADR-RES 14.8 µM | SF-295 13.4 µM | SK-MEL-28 17.1 µM | SNB-19 15.7 µM | SNB-75 12.2 µM | T47D 9.84 µM

Cc1ccc(Cc2nnc(S)[nH]2)cc1
inactive: COLO 205 > 100 µM | EKVX > 100 µM | HOP-92 > 100 µM | HT-29 > 100 µM | Hs-578T 47.2 µM | LOX IMVI 74 µM | M14 > 100 µM | MCF7 > 100 µM | MDA-MB-435 > 100 µM | MOLT-4 > 100 µM | Malme-3M > 100 µM | NCI-H226 > 100 µM | NCI-H460 78.2 µM | NCI/ADR-RES 77.6 µM | SF-295 52.2 µM | SK-MEL-28 > 100 µM | SNB-19 > 100 µM | SNB-75 > 100 µM | T47D 40.8 µM

Cc1cc(-c2nc3c(O)cccc3s2)ccc1N
inactive: COLO 205 38.7 µM | EKVX 20.2 µM | HOP-92 18.8 µM | HT-29 21.8 µM | Hs-578T 18.2 µM | LOX IMVI 17.3 µM | M14 16.7 µM | MCF7 13 µM | MDA-MB-435 17.7 µM | MOLT-4 25.4 µM | NCI-H226 31.6 µM | NCI-H460 30.5 µM | NCI/ADR-RES 19.9 µM | RPMI-8226 45 µM | SF-295 25.9 µM | SK-MEL-28 57.9 µM | SNB-19 15.3 µM | SNB-75 83.6 µM | T47D 74.5 µM
